Results on 38 molecules are retold here after patent US10059667B2, “Antidiabetic compounds” (MERCK SHARP & DOHME CORP., priority 2014, dated 2018).

Experiment [1] addresses T1, Human GPR40 (Homo sapiens (Human), UniProt O14842). The experiment is described as follows: FLIPR assay, agonist-induced calcium mobilization in GPR40/CHO NFAT BLA cells. Format: cell-based. The protocol:
(§1) Human and mouse GPR40 stable cell-lines were generated in CHO cells stably expressing NFAT BLA (Beta-lactamase). A human GPR40 stable cell-line was generated in HEK cells stably expressing the aequorin expressing reporter. The expression plasmids were transfected using lipofectamine (Life Technologies) following manufacturer's instructions. Stable cell-lines were generated following drug selection.
FLIPR (Fluorimetric Imaging Plate Reader, Molecular Devices) assays were performed to measure agonist-induced calcium mobilization of the stable clones. For the FLIPR assay, one day before assay, GPR40/CHO NFAT BLA cells were seeded into black-wall-clear-bottom 384-well plates (Costar) at 1.4×10e4 cells/20 μL medium/well. The cells were incubated with 20 μl/well of the assay buffer (HBSS, 0.1% BSA, 20 mM HEPES, 2.5 mM probenecid, pH 7.4) containing 8 μM fluo-4, AM, 0.08% pluronic acid at room temperature for 100 minutes. Fluorescence output was measured using FLIPR. Compounds were dissolved in DMSO and diluted to desired concentrations with assay buffer. 13.3 μL/well of compound solution was added.
For orientation: Calcium assays in cells follow changes in intracellular calcium, usually with a dye or a luminescent sensor.

The target in experiment [2] is T1, Human GPR40. The experiment is described as follows: Inositol Phosphate Turnover (IP1) Assay 1, HEK cells stably expressing human GPR40, 3H-inositol SPA. Format: cell-based. The following applies: HEK cells stably expressing human GPR40, 96-well. Here is the method:
as §1
The assay was performed in 96-well format. HEK cells stably expressing human GPR40 were plated to be 60-80% confluent within 72 h. After 72 h, the plates were aspirated and the cells washed with inositol-free DMEM (ICN). The wash media was replaced with 150 μL of 3H-inositol labeling media (inositol-free media containing 0.4% human albumin or 0.4% mouse albumin, 1× pen/strep antibiotics, glutamine, 25 mM HEPES to which was added 3H-myo-inositol NEN #NET114A 1 mCi/mL, 25 Ci/mmol diluted 1:150 in loading media with a final specific radioactivity of 1 μCi/150 μL). Alternatively, the human and mouse albumin can be added after the overnight labeling step before the addition of LiCl.
The assay was typically run the next day after 18 h labeling. On the day of the assay, 5 μL of 300 mM LiCl was added to all wells and incubated at 37 degrees for 20 min. 0.75 μL of each compound was added and incubated with the cells for 60 min at 37 degrees. The media was then aspirated off and the assay terminated with the addition of 60 μL 10 mM formic acid. The cells were lysed for 60 min at room temperature. 15-30 μL of lysate was mixed with 70 μL/1 mg YSi SPA beads (Amersham) in clear bottom Isoplates. The plates were shaken for 2 h at room temperature. Beads were allowed to settle and the plates were counted in the Wallac Microbeta.

T1 sequence (O14842 whole entry): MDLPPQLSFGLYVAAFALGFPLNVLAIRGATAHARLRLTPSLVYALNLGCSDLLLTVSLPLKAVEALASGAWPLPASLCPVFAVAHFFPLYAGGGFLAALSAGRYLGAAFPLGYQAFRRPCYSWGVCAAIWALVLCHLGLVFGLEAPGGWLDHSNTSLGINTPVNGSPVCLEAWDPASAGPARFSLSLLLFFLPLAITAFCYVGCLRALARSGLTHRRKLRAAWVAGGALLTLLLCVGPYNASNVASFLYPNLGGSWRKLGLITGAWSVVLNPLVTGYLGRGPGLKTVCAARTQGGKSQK

Regarding `O=C(O)C[C@H](c1cccc(OC2CC3(C2)CN(Cc2cc(C(F)(F)F)ccc2C(F)(F)F)C3)c1)C1CC1` [Example 15, (S)-3-(3-((2-(2,5-Bis(trifluoromethyl)benzyl)-2-azaspiro[3.3]heptan-6-yl)oxy)phenyl)-3-cyclopropylpropanoic acid], the figures for the EC50 in experiment [1] and in experiment [2] were 79 nM and 2080 nM, respectively.
The like results for `COc1ccc(F)cc1CN1CCC(COc2cccc([C@@H](CC(=O)O)C3CC3)c2)C1` (stereo partly drawn) [Example 20, (3S)-3-Cyclopropyl-3-(3-((1-(5-fluoro-2-methoxybenzyl)pyrrolidin-3-yl)methoxy)phenyl)propanoic acid] were, in that order, 266 nM and 10000 nM.
Take `C[C@H](C(=O)O)[C@H](c1cccc(O[C@H]2CCCN(Cc3cc(C(F)(F)F)ccc3C(F)(F)F)C2)c1)C1CC1` [Example 29]: the EC50 (usually the concentration giving half of the maximal effect) in experiment [1] worked out at 51 nM; in experiment [2], 711 nM.
Take `CC(c1cc(F)ccc1Cl)N1CC(COc2cccc([C@@H](CC(=O)O)C3CC3)c2)C1` (some centres unmarked) [Example 51]: the values for the EC50 in experiment [1] and in experiment [2] were 58 nM and 449 nM, respectively.
The like results for `O=C(O)C[C@H](c1cccc(OCC2CN(Cc3ccccc3OC(F)(F)F)C2)c1)C1CC1` [Example 50] were, in that order, 55 nM and 5030 nM.
The like results for `O=C(O)C[C@H](c1cccc(OCC2CCCCN2Cc2cc(C(F)(F)F)ccc2C(F)(F)F)c1)C1CC1` (stereo partly drawn) [Example 3, (3S)-3-(3-((1-(2,5-Bis(trifluoromethyl)benzyl)piperidin-2-yl)methoxy)phenyl)-3-cyclopropylpropanoic acid] were, in that order, 126 nM and 8380 nM.
The like results for `C[C@H](C(=O)O)[C@H](c1cccc(OCC2CN(c3ncccc3C(F)(F)F)C2)c1)C1CC1` [Example 21, (2S,3R)-3-Cyclopropyl-2-methyl-3-(3-((1-(3-(trifluoromethyl)pyridin-2-yl)azetidin-3-yl)methoxy)phenyl)propanoic acid] were, in that order, 13 nM and 297 nM.
As for `CC(c1ccccc1C(F)(F)F)N1CC(COc2cccc([C@@H](CC(=O)O)C3CC3)c2)C1` (some centres unmarked) [Example 55], the EC50 in experiment [1] stood at 7.3 nM; in experiment [2], 904 nM.
Take `C[C@H](C(=O)O)[C@H](c1cccc(OCC2CC(NCc3cc(C(F)(F)F)ccc3C(F)(F)F)C2)c1)C1CC1` (stereo partly drawn) [Example 14, (2S,3R)-3-(3-((3-((2,5-Bis(trifluoromethyl)benzyl)amino)cyclobutyl)methoxy)phenyl)-3-cyclopropyl-2-methylpropanoic acid]: the EC50 in experiment [1] worked out at 26 nM; in experiment [2], 956 nM.
As for `C[C@H](C(=O)O)[C@H](c1cccc(OC[C@H]2CCN(Cc3cc(C(F)(F)F)ccc3C(F)(F)F)C2)c1)C1CC1` [Example 33], the EC50 in experiment [1] came out at 5.3 nM; in experiment [2], 158 nM.
In the case of `O=C(O)C[C@H](c1cccc(OCC2(F)CN(Cc3cc(C(F)(F)F)ccc3C(F)(F)F)C2)c1)C1CC1` [Example 11, (S)-3-(3-((1-(2,5-Bis(trifluoromethyl)benzyl)-3-fluoroazetidin-3-yl)methoxy)phenyl)-3-cyclopropylpropanoic acid], the 50% effective concentration (EC50) in experiment [1] is 22 nM; in experiment [2] it was 967 nM.
For the molecule `CC(c1cc(F)ccc1F)N1CC(COc2cccc([C@@H](CC(=O)O)C3CC3)c2)C1` (some centres unmarked) [Example 57], the EC50 in experiment [1] came to 480 nM.
Take `O=C(O)C[C@H](c1cccc(OC2CCN(Cc3cc(C(F)(F)F)ccc3C(F)(F)F)C2)c1)C1CC1` (stereo partly drawn) [Example 23, (3S)-3-(3-((1-(2,5-Bis(trifluoromethyl)benzyl)pyrrolidin-3-yl)oxy)phenyl)-3-cyclopropylpropanoic acid]: the figures for the half-maximal effective concentration (EC50) in experiment [1] and in experiment [2] were 72 nM and 1040 nM, respectively.
The like results for `C[C@H](C(=O)O)[C@H](c1cccc(OCC2CN(c3cc(C(F)(F)F)ccc3C(F)(F)F)C2)c1)C1CC1` [Example 4, (2S,3R)-3-(3-((1-(2,5-Bis(trifluoromethyl)phenyl)azetidin-3-yl)methoxy)phenyl)-3-cyclopropyl-2-methylpropanoic acid] were, in that order, 77 nM and 485 nM.
The like results for `CC1(C)CN(Cc2cc(C(F)(F)F)ccc2C(F)(F)F)CC1COc1cccc([C@@H](CC(=O)O)C2CC2)c1` (stereo partly drawn) [Example 22, (3S)-3-(3-((1-(2,5-Bis(trifluoromethyl)benzyl)-4,4-dimethylpyrrolidin-3-yl)methoxy)phenyl)-3-cyclopropylpropanoic acid] were, in that order, 85 nM and 2610 nM.
The like results for `COc1cccc(C2CC2COc2cccc([C@@H](CC(=O)O)C3CC3)c2)c1` (some centres unmarked) [Example 61, (3 S)-3-cyclopropyl-3-(3-((2-(3-methoxyphenyl)cyclopropyl)methoxy)phenyl)propanoic acid] were, in that order, 24 nM and 651 nM.
`O=C(O)C[C@H](c1cccc(OC2CCN(Cc3cccc(C(F)(F)F)c3)C2)c1)C1CC1` (some centres unmarked) [Example 45]: the EC50 in experiment [1] turned out to be 387 nM.
`C[C@H](C(=O)O)[C@H](c1cccc(OCC2CC2c2ccccc2)c1)C1CC1` (some centres unmarked) [Example 68] came in with an EC50 in experiment [2] of 304 nM.
The molecule `C[C@H](C(=O)O)[C@H](c1cccc(OCC2CC(Oc3ccccc3)C2)c1)C1CC1` (stereo partly drawn) [Example 92, (2S,3R)-3-cyclopropyl-2-methyl-3-(3-((3-phenoxycyclobutyl)methoxy)phenyl)-propanoic acid] came in with an EC50 in experiment [2] of 208 nM.
On the same count and under the same terms, the result for `C[C@H](C(=O)O)[C@H](c1cccc(OCC2CC(Oc3ccn[nH]3)C2)c1)C1CC1` (single isomer, unassigned) [Example 99] reads 2670 nM; that for `C[C@H](C(=O)O)[C@H](c1cccc(OCC2CC(Oc3ccccn3)C2)c1)C1CC1` (some centres unmarked) [Example 103], 187 nM.
Molecule `COc1cccc(F)c1OC1CC(COc2cccc([C@H](C3CC3)[C@H](C)C(=O)O)c2)C1` (single isomer, unassigned) [Example 130] had an EC50 in experiment [2] of 139 nM.
Same read-out and setting: the figure for `CC(C)Oc1ccccc1OC1CC(COc2cccc([C@H](C3CC3)[C@H](C)C(=O)O)c2)C1` (single isomer, unassigned) [Example 126] is 147 nM; for `Cc1ccc(F)c(OC2CC(COc3cccc([C@H](C4CC4)[C@H](C)C(=O)O)c3)C2)c1` (single isomer, unassigned) [Example 119] it is 98 nM; for `COc1cccc(OC2CC(COc3cccc([C@H](C4CC4)[C@H](C)C(=O)O)c3)C2)c1` (single isomer, unassigned) [Example 66] it is 119 nM.
On the same count and under the same terms, the result for `C[C@H](C(=O)O)[C@H](c1cccc(OC[C@H]2C[C@@H]2c2cc(OC(F)(F)F)ccc2F)c1)C1CC1` [Example 145] reads 223 nM; that for `COc1cc(C2CC(COc3cccc([C@H](C4CC4)[C@H](C)C(=O)O)c3)C2)ccn1` (single isomer, unassigned) [Example 89], 61 nM.
On the same count and under the same terms, the result for `C[C@H](C(=O)O)[C@H](c1cccc(OCC2CC(Oc3ccccc3Cl)C2)c1)C1CC1` (single isomer, unassigned) [Example 133] reads 152 nM; that for `C[C@H](C(=O)O)[C@H](c1cccc(OCC2CCN([C@@H](C)c3cc(C(F)(F)F)ccc3C(F)(F)F)C2)c1)C1CC1` (some centres unmarked) [Example 41], 23 nM; that for `C[C@H](C(=O)O)[C@H](c1cccc(OCC2CC(Oc3ccc4c(c3)COC4=O)C2)c1)C1CC1` (single isomer, unassigned) [Example 107], 3450 nM.
As to `C[C@H](C(=O)O)[C@H](c1cccc(OCC2CC2Cc2ccccc2)c1)C1CC1` (some centres unmarked) [Example 67], the EC50 in experiment [2] came out at 408 nM.
In turn, `COc1cccc(C2CC2COc2cccc([C@H](C3CC3)[C@H](C)C(=O)O)c2)c1` (single isomer, unassigned) [Example 83] came in with a half-maximal effective concentration (EC50) in experiment [2] of 94 nM.
The same measure, in the same setting: the result for `COc1cncc([C@H]2C[C@@H]2COc2cccc([C@H](C3CC3)[C@H](C)C(=O)O)c2)c1` [Example 150] reads 4470 nM.
On the same count and under the same terms, the result for `C[C@H](C(=O)O)[C@H](c1cccc(OC[C@H]2C[C@@H]2c2cc(C(F)(F)F)ccc2C(F)(F)F)c1)C1CC1` [Example 155] reads 316 nM.
Same read-out and setting: the figure for `C[C@H](C(=O)O)[C@H](c1cccc(OCC2CC(Oc3ccnc4c3OCCO4)C2)c1)C1CC1` (some centres unmarked) [Example 111] is 3100 nM; for `COc1cc(C2CC(COc3cccc([C@H](C4CC4)[C@H](C)C(=O)O)c3)C2)ccn1` (some centres unmarked) [Example 86] it is 102 nM.
In turn, `C[C@H](C(=O)O)[C@H](c1cccc(OCC2CC(Oc3cccc(C(F)(F)F)c3)C2)c1)C1CC1` (some centres unmarked) [Example 136] gave an EC50 in experiment [2] of 262 nM.
Consider `COc1cccc(C2CC(COc3cccc([C@H](C4CC4)[C@H](C)C(=O)O)c3)C2)c1` (some centres unmarked) [Example 85], for which the EC50 in experiment [2] was 35 nM.
